Converted amounts (≈) assume the structure as drawn. Where two headings read alike, the source gives them in different places.
Tests used:
[1] = system: Escherichia coli; assay: Resistance frequency, large inoculum method; assay type: cell-based
Description: Selection of resistant mutants. Resistant mutants were selected using the large inoculum method. Briefly, E. coli BW25113, K. pneumoniae ATCC 27736, or E. cloacae ATCC 29893 (˜1.0×10^7 c.f.u.) was plated on 100-mm plates of Luria Bertani agar containing 8, 16, 32, or 64 μg/mL, lolamycin. For E. coli ΔtolC (JW5503), ˜1.0×10^7 c.f.u. was plated on 100-mm plates of Luria Bertani agar containing 0.063, 0.13, 0.25, 0.5 μg/mL lolamycin. Colonies were visible after incubating at 37° C. for 48 h. Resistant colonies were confirmed by growing colonies in selective media with the same concentration of lolamycin.

[2] = system: Escherichia coli; assay: MIC, micro-dilution broth method (CLSI); assay type: cell-based; conditions: Escherichia coli
[3] = system: Enterobacter cloacae; assay: MIC, micro-dilution broth method (CLSI); assay type: cell-based; conditions: Enterobacter cloacae, read-out: MIC
[4] = Mouse maximum tolerated dose / tolerability; assay type: in vivo
Description: Mouse maximum tolerated dose (MTD) of compound 2 and lolamycin. […] In these studies, 10- to 12-week-old female C57BL/6 mice purchased from Charles River Laboratories were used. The maximum tolerated dose (MTD) of a single compound via IP injection was determined first. Compound 2 and lolamycin were formulated in 50% DMSO, 50% PEG400. Compound 2 and lolamycin were given by intraperitoneal (IP) injection. All the mice were monitored for signs of toxicity for 2 weeks. For multiple doses, the compound was given by daily IP injection for 5 consecutive days and the mice were monitored for signs of toxicity for 1 month. The MTD was the highest dosage with acceptable toxicity (for example, <20% weight loss).
Next, the MTD of lolamycin via oral gavage was determined. Lolamycin was formulated in 20% DMSO, 30% Water, and 50% PEG400. Lolamycin was given via oral gavage. All the mice were monitored for signs of toxicity for 2 weeks. For multiple doses, compound was given twice daily orally for 3 consecutive days and the mice were monitored for signs of toxicity. The MTD was the highest dosage with acceptable toxicity (for example, <20% weight loss). […] The MTD of lolamycin was used to inform the dosing schedule used in subsequent efficacy studies.

[5] = system: clinical isolates of E. coli, K. pneumoniae, and E. cloacae; assay: Susceptibility of panel of multidrug-resistant clinical isolates; conditions: MDR clinical isolates of E. coli
[6] = system: E. coli AR0349; assay: Bacterial sepsis survival model; assay type: in vivo, CD-1 mice

In the case of Cc1cc(-c2c[nH]nc2-c2cccc(OCc3cccc(C#N)c3)c2)cc(C)n1 [Compound 12, 3-((3-(4-(2,6-dimethylpyridin-4-yl)-1H-pyrazol-3-yl)phenoxy)methyl)benzonitrile], the resistance frequency ([1]; E. coli ΔtolC JW5503, 32×MIC) was 1.8×10^−8, the resistance frequency ([1]; wild-type E. coli BW25113, 8×MIC) was 3.4×10^−7 and the MIC ([2]; ATCC25922, E. coli ATCC 25922, read-out: MIC) was 1 µg/mL (≈ 2.63 µM). The MIC ([2]; ATCCBAA2340, E. coli ATCC BAA-2340, read-out: MIC) was 2 µg/mL (≈ 5.26 µM), the MIC ([2]; ATCCBAA2469, E. coli ATCC BAA-2469, read-out: MIC) was 1 µg/mL (≈ 2.63 µM) and the MIC ([2]; ATCCBAA2471, E. coli ATCC BAA-2471, read-out: MIC) was 4 µg/mL (≈ 10.5 µM). It also gave an MIC ([2]; E. coli AR0048, read-out: MIC) of 4 µg/mL (≈ 10.5 µM), an MIC ([2]; E. coli AR0055, read-out: MIC) of 2 µg/mL (≈ 5.26 µM) and an MIC ([2]; E. coli AR0058, read-out: MIC) of 2 µg/mL (≈ 5.26 µM). The MIC ([2]; E. coli AR0061, read-out: MIC) was 8 µg/mL (≈ 21 µM), the MIC ([2]; E. coli AR0067, read-out: MIC) was 2 µg/mL (≈ 5.26 µM) and the MIC ([2]; E. coli AR0069, read-out: MIC) was 2 µg/mL (≈ 5.26 µM). For the same molecule, the MIC ([2]; E. coli AR0077, read-out: MIC) was 1 µg/mL (≈ 2.63 µM), the MIC ([2]; E. coli AR0081, read-out: MIC) was 2 µg/mL (≈ 5.26 µM) and the MIC ([2]; E. coli AR0084, read-out: MIC) was 2 µg/mL (≈ 5.26 µM). For the same molecule, the MIC ([2]; E. coli AR0085, read-out: MIC) was 1 µg/mL (≈ 2.63 µM), the MIC ([2]; E. coli AR0086, read-out: MIC) was 0.5 µg/mL (≈ 1.31 µM) and the MIC ([2]; E. coli AR0089, read-out: MIC) was 2 µg/mL (≈ 5.26 µM). For the same molecule, the MIC ([2]; E. coli AR0104, read-out: MIC) was 1 µg/mL (≈ 2.63 µM), the MIC ([2]; E. coli AR0114, read-out: MIC) was 2 µg/mL (≈ 5.26 µM) and the MIC ([2]; E. coli AR0118, read-out: MIC) was 1 µg/mL (≈ 2.63 µM). It also gave an MIC ([2]; E. coli AR0119, read-out: MIC) of 4 µg/mL (≈ 10.5 µM), an MIC ([2]; E. coli AR0128, read-out: MIC) of 1 µg/mL (≈ 2.63 µM) and an MIC ([2]; E. coli AR0137, read-out: MIC) of 2 µg/mL (≈ 5.26 µM). For the same molecule, the MIC ([2]; E. coli AR0149, read-out: MIC) was 2 µg/mL (≈ 5.26 µM), the MIC ([2]; E. coli AR0150, read-out: MIC) was 1 µg/mL (≈ 2.63 µM) and the MIC ([2]; E. coli AR0151, read-out: MIC) was 2 µg/mL (≈ 5.26 µM). For the same molecule, the MIC ([2]; E. coli AR0162, read-out: MIC) was 4 µg/mL (≈ 10.5 µM), the MIC ([2]; E. coli AR0346, read-out: MIC) was 2 µg/mL (≈ 5.26 µM) and the MIC ([2]; E. coli AR0348, read-out: MIC) was 2 µg/mL (≈ 5.26 µM). The MIC ([2]; E. coli AR0350, read-out: MIC) was 1 µg/mL (≈ 2.63 µM), the MIC ([2]; E. coli AR0493, read-out: MIC) was 4 µg/mL (≈ 10.5 µM) and the MIC ([2]; E. coli AR0494, read-out: MIC) was 4 µg/mL (≈ 10.5 µM). The MIC ([2]; E. coli AR0495, read-out: MIC) was 2 µg/mL (≈ 5.26 µM), the MIC ([2]; E. coli AR0541, read-out: MIC) was 1 µg/mL (≈ 2.63 µM) and the MIC ([2]; E. coli AR0543, read-out: MIC) was 4 µg/mL (≈ 10.5 µM). The MIC ([2]; E. coli AR0546, read-out: MIC) was 0.5 µg/mL (≈ 1.31 µM), the MIC ([2]; E. coli AR0551, read-out: MIC) was 2 µg/mL (≈ 5.26 µM) and the MIC ([2]; E. coli AR0559, read-out: MIC) was 2 µg/mL (≈ 5.26 µM). It also gave an MIC ([2]; E. coli AR-0349 (colistin-resistant clinical isolate), read-out: MIC) of 1 µg/mL (≈ 2.63 µM), an MIC ([2]; E. coli AR-0549, read-out: MIC) of 2 µg/mL (≈ 5.26 µM) and an MIC ([2]; E. coli ELZ 4004, read-out: MIC) of 2 µg/mL (≈ 5.26 µM). For the same molecule, the MIC ([2]; E. coli ELZ 4017, read-out: MIC) was 2 µg/mL (≈ 5.26 µM), the MIC ([2]; E. coli ELZ 4042, read-out: MIC) was 4 µg/mL (≈ 10.5 µM) and the MIC ([2]; E. coli ELZ 4072, read-out: MIC) was 2 µg/mL (≈ 5.26 µM). The MIC ([2]; E. coli ELZ 4081, read-out: MIC) was 2 µg/mL (≈ 5.26 µM), the MIC ([2]; E. coli ELZ 4139, read-out: MIC) was 8 µg/mL (≈ 21 µM) and the MIC ([2]; E. coli ELZ 4239, read-out: MIC) was 4 µg/mL (≈ 10.5 µM). It also gave an MIC ([2]; E. coli ELZ 4277, read-out: MIC) of 2 µg/mL (≈ 5.26 µM), an MIC ([2]; E. coli ELZ 4346, read-out: MIC) of 2 µg/mL (≈ 5.26 µM) and an MIC ([2]; E. coli ΔrfaC JW3596 (permeability mutant)) of 0.06 µg/mL (≈ 0.158 µM). The MIC ([2]; E. coli ΔtolC JW5503 (efflux-deficient)) was 0.008 µg/mL (≈ 0.021 µM), the MIC ([3]; ATCC29893, E. cloacae ATCC 29893) was 4 µg/mL (≈ 10.5 µM) and the MIC ([3]; ATCCBAA2341, E. cloacae ATCC BAA-2341) was 16 µg/mL (≈ 42.1 µM). It also gave an MIC ([3]; ATCCBAA2468, E. cloacae ATCC BAA-2468) of 4 µg/mL (≈ 10.5 µM), an MIC ([3]; E. cloacae AR0032) of 2 µg/mL (≈ 5.26 µM) and an MIC ([3]; E. cloacae AR0038) of 8 µg/mL (≈ 21 µM). For the same molecule, the MIC ([3]; E. cloacae AR0050) was 0.5 µg/mL (≈ 1.31 µM), the MIC ([3]; E. cloacae AR0053) was 4 µg/mL (≈ 10.5 µM) and the MIC ([3]; E. cloacae AR0060) was 1 µg/mL (≈ 2.63 µM). For the same molecule, the MIC ([3]; E. cloacae AR0065) was 1 µg/mL (≈ 2.63 µM), the MIC ([3]; E. cloacae AR0072) was 4 µg/mL (≈ 10.5 µM) and the MIC ([3]; E. cloacae AR0073) was 16 µg/mL (≈ 42.1 µM). The MIC ([3]; E. cloacae AR0093) was 2 µg/mL (≈ 5.26 µM), the MIC ([3]; E. cloacae AR0132) was 1 µg/mL (≈ 2.63 µM) and the MIC ([3]; E. cloacae AR0136) was 4 µg/mL (≈ 10.5 µM). For the same molecule, the MIC ([3]; E. cloacae AR0154) was 0.25 µg/mL (≈ 0.657 µM), the MIC ([3]; E. cloacae AR0164) was 2 µg/mL (≈ 5.26 µM) and the MIC ([3]; E. cloacae AR0544) was 4 µg/mL (≈ 10.5 µM). For the same molecule, the MIC ([3]; E. cloacae AR0545) was 1 µg/mL (≈ 2.63 µM), the MIC ([3]; E. cloacae AR-0163) was 8 µg/mL (≈ 21 µM) and the tolerability ([4]; C57BL/6 mice, daily dosing of 200 mg/kg for 5 consecutive days, IP) was “well tolerated”. For the same molecule, the tolerability ([4]; C57BL/6 mice, single dose of 200 mg/kg, IP) was “well tolerated”, the tolerability ([4]; mice, 100 mg/kg twice a day for three days, IP) was “well-tolerated” and the tolerability ([4]; mice, 200 mg/kg twice a day for three days, oral gavage, listed as Lolamycin, 200 mg/kg) was “well tolerated”. For the same molecule, the tolerability ([4]; mice, 200 mg/kg twice a day for three days, oral gavage, listed as lolamycin, 200 mg/kg) was “well-tolerated”, the “concentration that kills 50% of the strains” value [5] was about 2 µg/mL and the “concentration that kills 90% of the strains” value [5] was about 8 µg/mL. The “mice with septic infection rescued (survival)” value ([6]; 100 mg/kg IP twice daily for 3 days) was 100% and the “mice with septic infection rescued (survival)” value ([6]; 200 mg/kg PO twice daily for 3 days) was “over 70%”.

Source: patent US20250051300A1, “GRAM-NEGATIVE SPECIFIC ANTIBIOTICS SPARING EFFECT ON GUT MICROBIOME” (THE BOARD OF TRUSTEES OF THE UNIVERSITY OF ILLINOIS, priority 2021, published 2025)
